{
  "source": "patent US9345389B2",
  "about": "“Additional systems and methods for providing real-time anatomical guidance in a diagnostic or therapeutic procedure” (EMORY UNIVERSITY, priority 2010, dated 2016)",
  "key": {"4T1 breast tumors": {"system": "4T1 breast tumors", "assay": "In vivo and intra-operative tumor detection with handheld spectroscopic pen device", "parameters": "species or system mouse", "details": "ICG 357 μg/kg i.v.", "experimental": "All in vivo murine studies were performed under an approved protocol by the Emory University IACUC. The mouse mammary carcinoma cell line 4T1, which stably expresses a firefly luciferase gene, was obtained from Dr. Lily Yang at Emory University (Atlanta, Ga.). 4T1 cells were cultured in DMEM containing 10% FBS and 1× antibiotic/antimycotic agent. Prior to injection into mice, the cells were washed two times with PBS and diluted in sterile PBS to a final concentration of 2×10^7 cells/mL. Mammary tumors were inoculated into nude mice by the subcutaneous administration of 2×10^6 4T1 cells into the mouse flank. Once the tumors were approximately 4 mm in diameter, ICG was administered intravenously (i.v.) via a tail vein at a dose of 357 μg/kg. After 24 h, mice were anesthetized by intraperitoneal (i.p.) injection of a 2.5% solution of tribromoethanol (350 mg/kg). Tumor-bearing mice undergoing bioluminescence imaging were administered i.p. 100 μL, of a luciferin solution (30 mg/mL). Bioluminescent images were acquired on a Kodak In-Vivo FX Imaging System from Carestream Molecular Imaging (Rochester, N.Y.). Corresponding bright-field images were taken for anatomical reference of the bioluminescence signal. A series of spectra were acquired on tumor-bearing mice using the handheld spectroscopic pen device. First, the position of the handheld spectroscopic pen device was fixed to about 1-2 cm above the location of the acquisition area on the mouse. Spectra were collected in 1 s and were obtained from several locations, including directly over the center of the tumor and the peritumoral region. After the spectra were acquired, the integrated signal intensity was calculated. The signal intensity was compared to both the bright-field anatomical location and the bioluminescence signal.\nIn vivo investigations were conducted to test the ability of the handheld spectroscopic pen device to detect intratumoral deposition of ICG after intravenous infusion. This contrast agent has been approved by the U.S. Food and Drug Administration (FDA) and is indicated for various uses in humans, such as for determining cardiac output, hepatic function and liver blood flow, and for ophthalmic angiography. To assess degree of tumor contrast enhancement using ICG, mice were used in which 4T1 tumor cells (2×10^6 in number) were subcutaneously injected 18 days prior to imaging. The tumor cells were genetically engineered to express the firefly luciferase gene; intravenous injection of luciferin after tumor development causes these cells to emit bioluminescent light and allows one to determine the precise location of tumors using bioluminescence imaging. […]"}, "[1]": {"assay": "Optical properties of ICG", "type": "physicochemical", "details": "785 nm excitation", "description": "The ability of the handheld spectroscopic pen device to differentiate contrast agent signals from the autofluorescence and Raman scattering of major tissue/organ types (i.e. fat, liver and lung) was first examined. […] At 785 nm excitation, ICG has a fluorescence peak at 816 nm, while fat has a background fluorescence peak at 805 nm plus resolvable Raman signals at 862, 1070, 1297, 1439, and 1652 cm^−1 (corresponding to 842, 857, 874, 885, and 902 nm in wavelength, respectively). ICG buried in fat has identifiable contributions of both ICG and fat (e.g., ICG fluorescence at 816 nm and the fat Raman peaks at 874 and 885 nm)."}, "[2]": {"details": "stated as known; cited from earlier work"}, "[3]": {"assay": "Inspection of internal organs and behavior for toxicity in Apcmin/+ mice", "quoted_text": "This study was conducted in two mice. Two mice were injected with 2 mg/kg ICG. One mouse received ICG intravenously via a tail vein. The other mouse was administered ICG intraperitoneally. After ICG had circulated for 20 h, the mice were euthanized, the lower GI was removed, washed extensively, sectioned roughly into four segments; duodenum, jejunum, ilium, and cecum and colon, and formalin fixed. The mice were then imaged using the integrated imaging and spectroscopy imaging system as provided in this disclosure.\nSince these doses were at the maximum recommended dose, the internal organs were briefly inspected for any aberrant signs of toxicity."}, "[4]": {"details": "after intravenous administration, bound to serum proteins; cited from earlier work"}, "polyps": {"system": "polyps", "assay": "Detection of murine GI polyps (Apcmin/+ FAP model) with SpectroPen", "type": "in vivo, mouse", "quoted_text": "This example describes the detection of polyps in the murine FAP model, Apcmin/+. This study was conducted in two mice. Two mice were injected with 2 mg/kg ICG. One mouse received ICG intravenously via a tail vein. The other mouse was administered ICG intraperitoneally. After ICG had circulated for 20 h, the mice were euthanized, the lower GI was removed, washed extensively, sectioned roughly into four segments; duodenum, jejunum, ilium, and cecum and colon, and formalin fixed. The mice were then imaged using the integrated imaging and spectroscopy imaging system as provided in this disclosure.\nIntestinal segments were rinsed with PBS. […] Next the “SpectroPen” handheld probe was placed 1 cm above the intestinal tissue and clamped into that position for consistent repetitive acquisitions. The 1 cm space between the SpectroPen and the tissue correlates roughly to a 1 mm laser spot size. • 3. Spectra were acquired and recorded from apparently healthy sections of the intestine (considered background signal), and polyps. An integration time of 1 s was utilized. • 4."}},
  "data": [
    {"smiles": "CC1(C)C(/C=C/C=C/C=C/C=C2\\N(CCCCS(=O)(=O)O)c3ccc4ccccc4c3C2(C)C)=[N+](CCCCS(=O)(=O)[O-])c2ccc3ccccc3c21", "note": "[ICG, Indocyanine green]", "values": [
      {"measurement": "signal of excised tumors vs surgical cavity", "setting": "4T1 breast tumors; after surgical removal", "value": 10, "unit": "fold"},
      {"measurement": "integrated signal intensity, tumor areas vs normal regions", "setting": "4T1 breast tumors; mice with 4T1 tumors, 24 h", "value": "~10", "unit": "times"},
      {"measurement": "signal at adjacent edges (less than 2 mm from the tumor) vs more remote areas", "setting": "4T1 breast tumors; mice with 4T1 tumors, 24 h", "value": "5-6 times"},
      {"measurement": "ICG signal at positive surgical margin vs adjacent tissue", "setting": "4T1 breast tumors; residual tumor at margin of cavity", "value": 5, "unit": "times"},
      {"measurement": "fluorescence peak", "setting": "[1]", "value": 816, "unit": "nm"},
      {"measurement": "route of excretion", "setting": "[2]", "value": "secreted entirely into bile"},
      {"measurement": "appearance of internal organs", "setting": "[3]; 2 mg/kg ICG intraperitoneally, 20 h, patent attributes to anemia from polyps", "value": "pale color was immediately noticed, especially in the liver and kidneys"},
      {"measurement": "behavioral changes", "setting": "[3]; 2 mg/kg ICG via tail vein", "value": "no dramatic behavioral changes"},
      {"measurement": "hydrodynamic size (diameter) after protein binding", "setting": "[4]", "value": "6-8 nm"},
      {"measurement": "ICG signal in polyps vs background", "setting": "polyps; 2 mg/kg ICG intraperitoneally, 20 h, GI tract ex vivo", "value": "greater than in the background"},
      {"measurement": "ICG signal in polyps vs background tissue", "setting": "polyps; 2 mg/kg ICG intravenously, 20 h, GI tract ex vivo", "value": "higher signal in polyps then in the background tissue"},
      {"measurement": "signal in GI tract, i.p. vs i.v. route", "setting": "polyps; 2 mg/kg ICG, 20 after injection", "value": "larger signal in the GI tract compared to mouse injected i.v."},
      {"measurement": "signal from colon polyp compared to background", "setting": "polyps; Apcmin/+ mouse, colon, 2 mg/kg ICG i.v., 20 h", "value": "≥ 5", "unit": "fold"}
    ]}
  ]
}
